From patent US9982017B2, “Synthetic apelin mimetics for the treatment of heart failure” (priority 2012, dated 2018)
*1 amine or outer side, *2 acyl side, *3 side chain or, on linkers, in order; H or OH if unused. Where a SMILES comes first, the peptide text is derived from it. Bridges are numbered along the chain shown (N, C = ends). [ ]: non-standard residue; d: D form. The star is where a group is joined. Cha = N[C@@H](CC1CCCCC1)C(=O)O; pGlu = O=C1CC[C@@H](C(=O)O)N1; CH2COCH2 = O=C(C[*:1])C[*:2]; NHPhenethyl = c1ccc(CCN*)cc1; Nle = CCCC[C@H](N)C(=O)O; Inp = O=C(O)C1CCNCC1

Key:
in vitro = details: rat, not told
[1] = Plasma Stability Assay (LC-MS); type: in vitro ADME; details: male, Sprague-Dawley, heparinized rat plasma, 37° C., Table 3, read-out: Plasma stability t½
Method: • Working solution: 1 mg/mL test article is prepared in Milli-Q water • Extraction solution: Methanol:Acetonitrile:Water (1:1:1) with 0.1% Formic Acid and 400 ng/mL Glyburide. • Plasma: Male Sprague-Dawley rat plasma (with sodium heparin), purchased from Bioreclamation LLC (Liverpool, N.Y.). • Whole blood: Male Sprague Dawley whole blood (with sodium heparin), purchased from Bioreclamation LLC (Liverpool, N.Y.) • Lung homogenate: Male rat Sprague Dawley lung was purchased from Bioreclamation LLC (Liverpool, N.Y.). The lung was homogenized using polytron homogenizer after addition of 5× volume of 1×PBS. The homogenate was centrifuged at 9000 rpm for 10 min at 4° C. The supernatant was centrifuged again at 3000 rpm for 30 min to make a clear supernatant. Protein concentration was determined using a commercial kit (Pierce, Thermo Scientific). Sample Preparation Procedure:
Test article was prepared in one of the following biological matrices: heparinized rat plasma, heparinized rat whole blood or lung homogenate. The plasma and whole blood sample was prepared at 5000 ng/mL by adding 5 uL of 1 mg/mL Working solution to 995 uL of rat plasma or whole blood. Lung homogenate samples were prepared by diluting lung homogenate to 1 mg/ml protein concentration with phosphate buffered saline (PBS), followed by addition of 5 uL Working solution to 995 uL diluted lung homogenate. The samples were incubated at 37° C. with gentle shaking (65˜75 rpm) in a water bath incubator. At times 0 min, 5 min, 15 min, 30 min, 60 min, 120 and 240 min, 25 uL aliquots of incubation samples were transferred to 96-well plate and immediately protein precipitated using 150 uL of Extraction solution. After completion of incubation experiment, the sample plate was centrifuged at 4000 rpm at 4° C. for 10 minutes. Afterwards, a pipetting device (Tecan Temo) was used to tranfer the supernatants to another plate and add 50 uL of water to all samples. The plate was vortexed prior to LC-MS analysis. • LC-MS Analysis of Stability Samples • HPLC: Agilent 1290 HPLC with autosampler • Column: MAC-MOD ACE C18, 3 μm, 30 mm×2.1 mm i.d. • Mobile phase A: 0.1% Formic acid in acetonitrile • Mobile phase B: 0.1% Formic acid in water Gradient Program: […]

[2] = Surrogate Activity-Based Plasma Stability Assay (calcium flux EC50 after incubation with 5% rat plasma); details: not told
[3] = Surrogate Activity based Plasma stability t½
[4] = Surrogate activity-based Plasma stability t½

| half-life (in vitro; [3]) [h] | half-life (in vitro; [4]) [h] | half-life at 5000 ng/mL [1] [h] | Structure (SMILES) | half-life [2] [h] |
| --- | --- | --- | --- | --- |
| 0.235 | 0.235 | 0.0383 | CCCC[C@@H]1NC(=O)[C@@H]2CCCN2C(=O)CNC(=O)[C@H](CCCCN)NC(=O)[C@H](Cc2c[nH]cn2)NC(=O)[C@@H](NC(=O)[C@H](CC(C)C)NC(=O)[C@H](CCCNC(=N)N)NC(=O)[C@@H]2CCCN2C(=O)[C@H](CCCNC(=N)N)NC(=O)[C@@H](N)CCCNC(=N)N)CSSC[C@@H](C(=O)N[C@@H](Cc2ccccc2)C(=O)O)NC1=O [Example 17, H-R-R-P-R-L-C-H-K-G-P-Nle-C-F-OH] (H-RRPRLCHKGP[Nle]CF-OH; disulfide 6-12) |  |
| 4.13 | 4.13 | 3.67 | CCCC[C@@H]1NC(=O)[C@@H]2CCCN2C(=O)CNC(=O)[C@H](CCCCN)NC(=O)[C@H](Cc2c[nH]cn2)NC(=O)[C@@H](NC(=O)[C@H](CC(C)C)NC(=O)[C@H](CCCNC(=N)N)NC(=O)[C@@H]2CCCN2C(=O)[C@H](CCCNC(=N)N)NC(=O)C2CCNCC2)CSSC[C@@H](C(=O)N[C@@H](Cc2ccccc2)C(=O)O)NC1=O [Example 18, H-Isn-R-P-R-L-C-H-K-G-P-Nle-C-F-OH] (H-[Inp]RPRLCHKGP[Nle]CF-OH; disulfide 6-12) |  |
| 4.73 | 4.73 | 3.05 | CCCC[C@@H]1NC(=O)[C@@H]2CCCN2C(=O)CNC(=O)[C@H](CCCCN)NC(=O)[C@H](Cc2c[nH]cn2)NC(=O)[C@@H](NC(=O)[C@H](CC(C)C)NC(=O)[C@H](CCCNC(=N)N)NC(=O)[C@@H]2CCCN2C(=O)[C@H](CCCNC(=N)N)NC(=O)[C@@H]2CCC(=O)N2)CSSC[C@@H](C(=O)N[C@H](Cc2ccccc2)C(=O)O)NC1=O [Example 13, pE-R-P-R-L-C-H-K-G-P-Nle-C-f-OH] ([pGlu]RPRLCHKGP[Nle]C[dF]-OH; disulfide 6-12) |  |
|  |  |  | CCCC[C@@H]1NC(=O)[C@@H]2CCCN2C(=O)CNC(=O)[C@H](CCCCN)NC(=O)[C@H](Cc2cnc[nH]2)NC(=O)[C@@H](NC(=O)[C@H](CC(C)C)NC(=O)[C@H](CCCNC(=N)N)NC(=O)[C@@H]2CCCN2C(=O)[C@H](CCCNC(=N)N)NC(=O)[C@@H]2CCC(=O)N2)CSCC(=O)CSC[C@@H](C(=O)N[C@@H](Cc2ccccc2)C(=O)O)NC1=O [Example 64, (S)-2-((3S,6R,14R,17S,20S,28aS)-17-((1H-imidazol-5-yl)methyl)-20-(4-aminobutyl)-3-butyl-14-((S)-2-((S)-5-guanidino-2-((S)-1-((S)-5-guanidino-2-((S)-5-oxopyrrolidine-2-carboxamido)pentanoyl)pyrrolidine-2-carboxamido)pentanamido)-4-methylpentanamido)-1,4,10,15,18,21,24-heptaoxohexacosahydropyrrolo[2,1-i][1,23,4,7,10,13,16,19]dithiahexaazacyclohexacosine-6-carboxamido)-3-phenylpropanoic acid] ([pGlu]RPRLCHKGP[Nle]CF-OH; linker 6-12 via CH2COCH2) | 7.58 |
|  |  |  | CCCC[C@@H]1NC(=O)[C@@H]2CCCN2C(=O)CNC(=O)[C@H](CCCCN)NC(=O)[C@@H]2CSSC[C@H](NC(=O)[C@H](CCCNC(=N)N)NC(=O)[C@@H]3CCC(=O)N3)C(=O)N[C@@H](CCCNC(=N)N)C(=O)N[C@@H](CC(C)C)C(=O)N[C@@H](CSSC[C@@H](C(=O)N[C@@H](Cc3ccccc3)C(=O)O)NC1=O)C(=O)N2 [Example 29, pE-R-C-R-L-C-C-K-G-P-Nle-C-F-OH] ([pGlu]RCRLCCKGP[Nle]CF-OH; disulfide 3-7, 6-12) | 3.61 |
| 1.42 | 1.42 | 1.05 | N=C(N)NCCC[C@H](NC(=O)[C@@H]1CCCN1C(=O)[C@H](CCCNC(=N)N)NC(=O)[C@@H]1CCC(=O)N1)C(=O)N[C@@H](CC1CCCCC1)C(=O)N[C@H]1CSSC[C@@H](C(=O)N[C@@H](Cc2ccccc2)C(=O)O)NC(=O)[C@H](CC2CCCCC2)NC(=O)[C@@H]2CCCN2C(=O)CNC(=O)[C@H](CCCCN)NC(=O)[C@H](Cc2c[nH]cn2)NC1=O [Example 14, pE-R-P-R-Cha-C-H-K-G-P-Cha-C-F-OH] ([pGlu]RPR[Cha]CHKGP[Cha]CF-OH; disulfide 6-12) |  |
|  |  |  | CCCC[C@@H]1NC(=O)[C@@H]2CCCN2C(=O)CNC(=O)[C@H](CCCCN)NC(=O)[C@@H]2CSSC[C@H](NC(=O)[C@@H]3CCCN3C(=O)[C@H](CCCNC(=N)N)NC(=O)[C@@H]3CCC(=O)N3)C(=O)N[C@@H](CC(C)C)C(=O)N[C@@H](CSSC[C@@H](C(=O)N[C@@H](Cc3ccccc3)C(=O)O)NC1=O)C(=O)N2 [Example 28, pE-R-P-C-L-C-C-K-G-P-Nle-C-F-OH] ([pGlu]RPCLCCKGP[Nle]CF-OH; disulfide 4-7, 6-12) | 7.34 |
| 0.223 | 0.223 | 0.17 | CCCC[C@@H]1NC(=O)[C@@H]2CCCN2C(=O)CNC(=O)[C@H](CCCCN)NC(=O)[C@H](Cc2c[nH]cn2)NC(=O)[C@@H](NC(=O)[C@H](CC(C)C)NC(=O)[C@H](CCCNC(=N)N)NC(=O)[C@@H]2CCCN2C(=O)[C@@H](N)CCCNC(=N)N)CSSC[C@@H](C(=O)N[C@@H](Cc2ccccc2)C(=O)O)NC1=O [Example 16, H-R-P-R-L-C-H-K-G-P-Nle-C-F-OH] (H-RPRLCHKGP[Nle]CF-OH; disulfide 5-11) |  |
| 6.78 | 6.78 | 2.72 | CCCC[C@@H]1NC(=O)[C@@H]2CCCN2C(=O)CNC(=O)[C@H](CCCCN)NC(=O)[C@H](Cc2cnc[nH]2)NC(=O)[C@@H](NC(=O)[C@H](CC(C)C)NC(=O)[C@H](CCCNC(=N)N)NC(=O)[C@@H]2CCCN2C(=O)[C@H](CCCNC(=N)N)NC(=O)[C@@H]2CCC(=O)N2)CSSC[C@@H](C(=O)N[C@@H](Cc2ccccc2)C(=O)O)NC1=O [Example 8, (S)-2-((3S,6R,11R,14S,17S,25aS)-14-((1H-imidazol-5-yl)methyl)-17-(4-aminobutyl)-3-butyl-11-((S)-2-((S)-5-guanidino-2-((S)-1-((S)-5-guanidino-2-((S)-5-oxopyrrolidine-2-carboxamido)pentanoyl)pyrrolidine-2-carboxamido)pentanamido)-4-methylpentanamido)-1,4,12,15,18,21-hexaoxodocosahydro-1H-pyrrolo[2,1-j][1,2,5,8,11,14,17,20]dithiahexaazacyclotricosine-6-carboxamido)-3-phenylpropanoic acid] ([pGlu]RPRLCHKGP[Nle]CF-OH; disulfide 6-12) |  |

| Structure (SMILES) | half-life (in vitro; [3]) [h] | half-life (in vitro; [4]) [h] | half-life at 5000 ng/mL [1] [h] | half-life [2] [h] |
| --- | --- | --- | --- | --- |
| CCCC[C@@H]1NC(=O)[C@@H]2CCCN2C(=O)CNC(=O)[C@H](CCCCN)NC(=O)[C@H](Cc2c[nH]cn2)NC(=O)[C@@H](NC(=O)[C@H](CC(C)C)NC(=O)[C@H](CCCNC(=N)N)NC(=O)[C@@H]2CCCN2C(=O)[C@H](CCCNC(=N)N)NC(=O)[C@@H]2CCC(=O)N2)CSSC[C@@H](C(=O)NCCc2ccccc2)NC1=O [Example 12, pE-R-P-R-L-C-H-K-G-P-Nle-C-Phenethylamine] ([pGlu]RPRLCHKGP[Nle]C-NHPhenethyl; disulfide 6-12) | 1.6 | 1.56 | 0.898 |  |
